The values that follow come from PubChem BioAssay (NCI).

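Dose response: 5 concentrations. Exposure: 48 h. Format: 96-well plates. Endpoint: linear interpolation; highest concentration if not reached. TGI marks complete inhibition of growth.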

Holding throughout (assay): growth of human tumour cells (NCI), 48 h
For assay [1], the system named is NCI/ADR-RES ovarian.
The test system of assay [2] is OVCAR-4 ovarian.
Assay [3] has as its system RPMI-8226 leukemia.
The subject of assay [4] is HCT-116 colon.
For assay [5], the system named is SF-268 CNS.
Assay [6] deals with SF-295 CNS.
Assay [7] has as its system 786-0 renal.
The subject of assay [8] is UO-31 renal.
Assay [9] concerns NCI-H460 lung.
The test system of assay [10] is COLO 205 colon.
Assay [11] relates to EKVX NSCLC.
The subject of assay [12] is TK-10 renal.
Assay [13] has as its system A498 renal.
Assay [14] deals with IGROV1 ovarian.
Assay [15] concerns SK-MEL-2 melanoma.
Assay [16] concerns MDA-MB-435.
The subject of assay [17] is SN12C renal.
In assay [18] the test system is MDA-MB-231 breast.
The subject of assay [19] is SK-OV-3 ovarian.
Assay [20] relates to A549 NSCLC.

For `COC(=O)C(Cc1ccc2c(c1)CCC2)Cc1ccc2c(c1)CCC2`, the TGI in [1], in [2], in [3], in [4], in assay [5] and in [6] was above 100 µM in each case. In addition, the TGI in assay [7], in assay [8], in assay [9], in [10], in assay [11] and in [12] was above 100 µM throughout. Moreover, the TGI in assay [13], in assay [14], in [15], in [16], in [17] and in assay [18] was above 100 µM in each case. In addition, the TGI in assay [19] and in [20] was above 100 µM throughout.

For the compound `C/C(=N\N=C1/C(=O)OC(c2ccccc2)=C1C(=O)c1ccccc1)c1ccc([N+](=O)[O-])cc1`, the TGI in assay [1] was above 100 µM; in assay [2], above 100 µM; in [3], 48.9 µM; in assay [4], above 100 µM; in assay [5], above 100 µM; in [6], above 100 µM. The TGI in [7], in assay [8], in assay [9], in [10], in assay [11] and in assay [12] was above 100 µM in each case. For the same compound, the TGI in [13], in assay [14], in assay [15], in assay [16], in [17] and in assay [18] was above 100 µM throughout. Besides, the TGI in [19] and in assay [20] was above 100 µM throughout.

For `Cc1nn(-c2ccccc2)c2c1C(c1cc3ccccc3nc1Cl)NC(=O)N2` (stereo not given), the TGI in assay [1] is above 100 µM; in assay [2], above 100 µM; in assay [3], 61.4 µM; in assay [4], 84.6 µM; in [5], above 100 µM; in assay [6] it was 55.8 µM. The TGI in assay [7] was 35.2 µM; in assay [8], 28.2 µM; in [9] it was above 100 µM; in assay [10] it was 41.1 µM; in [11], 88.8 µM; in assay [12], above 100 µM. Also, the TGI was determined as 62 µM in assay [13]; 24.9 µM in [14]; 29.5 µM in assay [15]; 54.7 µM in assay [16]; 67.5 µM in assay [17]; 59.3 µM in assay [18]. Further, the TGI in assay [19] is 49.1 µM; in assay [20], above 100 µM.

`COc1ccc(C2OC(c3ccncc3)=NN2C)cc1F` (stereo not given): the TGI in assay [1], in assay [2], in [3], in assay [4], in [5] and in assay [6] was above 100 µM throughout. Further, the TGI in assay [7], in [8], in assay [9], in [10], in assay [11] and in assay [12] was above 100 µM throughout. For the same compound, the TGI in [13], in [14], in [15], in assay [16], in assay [17] and in assay [18] was above 100 µM in each case. The TGI in assay [19] and in [20] was above 100 µM each time.

For `CC1(C)[C@@H]2CC[C@@]1(C)CN(CCC[N+](C)(C)C)C2`, the TGI in assay [1], in assay [2], in assay [3], in assay [4], in assay [5] and in [6] was above 100 µM each time. For the same compound, the TGI in assay [7], in assay [8], in assay [9], in assay [10], in assay [11] and in [12] was above 100 µM in each case. Further, the TGI in assay [13], in assay [14], in assay [15], in [16], in [17] and in assay [18] was above 100 µM throughout. Besides, the TGI in [19] and in [20] was above 100 µM each time.

As for `CC(C)(C)[Si](C)(C)OCC1OC(n2ccc(=O)[nH]c2=O)C(O[Si](C)(C)C(C)(C)C)/C1=C/C#N` (stereo not given), the TGI in assay [1] is above 42.3 µM; in [2] it was above 100 µM; in assay [3] it was above 100 µM; in assay [4], above 53.2 µM; in assay [5] it was above 100 µM; in assay [6], above 81.4 µM. Also, the TGI was above 100 µM in assay [7]; above 100 µM in [8]; above 100 µM in assay [9]; 9.83 µM in assay [10]; above 100 µM in [11]; above 44 µM in [12]. Besides, the TGI in [13] was 76.6 µM; in assay [14], above 100 µM; in assay [15] it was 42.4 µM; in assay [16] it was above 38.7 µM; in assay [17] it was 32.5 µM; in [18], above 83.5 µM. The TGI in [19] and in [20] was above 100 µM each time.

For the compound `OC[C@H]1O[C@@H]2O[C@@](COCc3ccccc3)([C@H](OCc3ccccc3)[C@H]2O)[C@@H]1OCc1ccccc1`, the TGI in assay [1] was found to be 36.1 µM; in assay [2], 10.8 µM; in [3] it was 32.4 µM; in assay [4], 30.1 µM; in assay [5] it was 32.3 µM; in [6], 28.8 µM. Moreover, the TGI in assay [7] was 30.7 µM; in assay [8], 29.4 µM; in assay [9], 34.2 µM; in [10], 35 µM; in [11], 28 µM; in [12], 33.3 µM. Besides, the TGI is 32.1 µM in assay [13]; 27 µM in assay [14]; 32 µM in assay [15]; 31.8 µM in assay [16]; 29.2 µM in assay [17]; 29.3 µM in [18]. Further, the TGI was determined as 27.9 µM in assay [19] and 29.3 µM in assay [20].
